Where two headings read alike, the source gives them in different places.
Legend:
[1] = tested on: PHH spheroids; design: method as in Bell et al. 2016; details: 48-h exposure; ref Bell et al. 2016; cited from earlier work
[2] = tested on: rBsep; details: In vitro Assay; ref Dawson 2012; cited from earlier work
[3] = tested on: HepG2 cells; details: cited from earlier work
[4] = cited from earlier work
[5] = cited from earlier work; remark: listed apart in the source
[6] = tested on: hLiMTs; test: Combined HCI (HCS) and cellular ATP 3D assay in hLiMTs
[7] = plasma free fraction; cited from earlier work
[8] = tested on: HepG2 cells; details: cited from earlier work; remark: listed apart in the source
[9] = tested on: PHH spheroids; details: cited from earlier work
[10] = phase I clinical trials; ref Manning and Swartz 1995; McKenzie et al. 1995; cited from earlier work
[11] = Plasma free fraction (fu) and unbound Cmax (Cmax,u); format: in vitro ADME, human; details: unbound plasma Cmax
Method: The prediction of DILI severity was evaluated further using the 3D combined HCI assays using plasma-free fraction. The majority of fu values were obtained from literature, when unavailable in-house prediction was utilised. Unbound plasma Cmax concentrations (Cmax,u) were derived by multiplying total plasma Cmax with the corresponding free fraction (fu) for each compound.

[12] = tested on: PHH liver spheroid; design: method as in Foster et al. 2019; details: liver-chip of comparable sensitivity, ref Foster et al. 2019; cited from earlier work
[13] = read-out: Human plasma Cmax; total plasma Cmax.tot, median of 9 literature references; cited from earlier work
[14] = tested on: HepaRG spheroids; test: Combined HCI (HCS) and cellular ATP 3D assay in HepaRG spheroids; details: for AC50 / minimal effective concentration: Homo sapiens
[15] = tested on: THLE-Null and THLE-3A4 cells; details: In vitro Assay; ref Gustafsson 2014; cited from earlier work
[16] = tested on: HepG2 cells; details: cited from earlier work; remark: listed apart in the source
[17] = tested on: rBsep; design: method as in Dawson 2012; details: ref Dawson 2012, cited from earlier work
[18] = In vitro Assay, ref Persson 2013
[19] = Microtissue model structural based (HCI), combined HCS and ATP, MEC < 25 × Cmax.tot cut-off

## O=c1[nH]c(=O)n([C@@H]2O[C@H](CO)[C@@H](O)[C@@H]2F)cc1I [fialuridine]
[1]
  toxicity in PHH spheroids: no toxicity
[2]
  Inhibition of rBsep cutoff<1& cmax u>.2: -VE
  Inhibition of rBsep cutoff<3: -VE
[3]; [18]
  Cluser analysis: -VE
  Structural based (HCI): +VE
[3]; Structural based (HCI), HepG2, ref Persson et al. 2013
  DILI in vitro assay prediction, Persson (2013): -VE
[4]; LTKB DILIrank category, ref Chen et al. 2016
  DILI severity category (Chen et al. [2016]): Most
[4]; human DILI classification, LTKB DILIrank, ref Chen et al. 2016
  DILI severity category (Chen 2016): Most
[4]; human DILI severity, ref Chen et al.
  DILI severity category: Most
[4]; ref Chen 2016
  DILI +VE (5-8), DILI -VE (-4): +VE
  DILI severity category: vMost-DILI-Concern
[5]; Chen et al. 2016 or literature alignment, ref Chen et al. 2016
  Assigned DILI category: 3
[5]; ref Dawson 2012
  In vivo DILI: +VE
[5]; ref Gustafsson 2014
  In vivo DILI: +VE
[5]; ref O'Brien 2006
  In vivo DILI: +VE
[5]; ref Persson 2013
  In vivo DILI: +VE
[5]; ref Tolosa 2012
  In vivo DILI: +VE
[5]; ref Vorrink 2018
  In vivo DILI: +VE
[6]; Homo sapiens, read-out: ATP endpoint AC50
  AC50: 6.3 µM
[6]; Homo sapiens, read-out: ATP endpoint MEC
  minimal effective concentration: 0.932 µM
[6]; Homo sapiens, read-out: HCS endpoint MEC
  minimal effective concentration: 6.54 µM
[6]; [19]
  DILI prediction hLiMTs (HCS-MEC): +VE (MEC < 25 × Cmax.tot cut-off)
[6]; hLiMTs, ATP endpoint, cut-off <25x Avg Cmax
  hLiMTs <25x Avg Cmax ATP: +ve
[6]; hLiMTs, ATP endpoint, cut-off <100x Avg Cmaxu
  hLiMTs <100x Avg Cmaxu ATP: +ve (<100x Avg Cmaxu)
[6]; hLiMTs, HCS endpoints, cut-off <25x Avg Cmax
  hLiMTs <25x Avg Cmax HCS: +ve
[6]; hLiMTs, HCS endpoints, cut-off <100x Avg Cmaxu
  hLiMTs <100x Avg Cmaxu HCS: +ve (<100x Avg Cmaxu)
[6]; hLiMTs, all endpoints (ATP and HCS), cut-off <25x Avg Cmax
  hLiMTs <25x Avg Cmax All: +ve
[6]; hLiMTs, all endpoints, Cmax max used
  hLiMTs Cmax max All: +ve
[6]; hLiMTs, all endpoints, Cmax min used
  hLiMTs Cmax min All: +ve
[6]; hLiMTs, all endpoints, cut-off <10 uM
  hLiMTs <10 uM All: +ve (<10 uM)
[6]; hLiMTs, all endpoints, cut-off <100x Avg Cmaxu
  hLiMTs <100x Avg Cmaxu All: +ve (<100x Avg Cmaxu)
[7]
  fu: 0.360
[8]; In vitro Assay, ref O'Brien 2006
  Structural based (HCI): +VE
[8]; Structural based (HCI), HepG2, ref O'Brien et al. 2006
  DILI in vitro assay prediction, O'Brien (2006): +VE (lowest HCI endpoint IC50 (or in the absence of dose–response < 100 µM) < 30 × total human plasma exposure levels (Cmax.tot))
[9]; In vitro Assay, ref Vorrink 2018
  hLiMTs ATP <20 x Cmax: +VE (IC20 < 20 × Cmax.tot cut-off)
[9]; PHH spheroids, ATP, 14 days, IC20 < 20 × Cmax.tot, ref Vorrink et al. 2018
  DILI in vitro assay prediction, Vorrink (2018): +VE (IC20 < 20 × Cmax.tot cut-off)
[10]
  clinical liver finding: fatal hepatotoxicity
[11]
  Human plasma Cmax,u: 295 nM
[12]
  detection in 3D microtissues: detected
[13]
  Cmax: 820 nM
[14]; HepaRG, ATP endpoint, cut-off <25x Avg Cmax
  HepaRG <25x Avg Cmax ATP: +ve
[14]; HepaRG, ATP endpoint, cut-off <100x Avg Cmaxu
  HepaRG <100x Avg Cmaxu ATP: +ve (<100x Avg Cmaxu)
[14]; HepaRG, HCS endpoints, cut-off <25x Avg Cmax
  HepaRG <25x Avg Cmax HCS: +ve
[14]; HepaRG, HCS endpoints, cut-off <100x Avg Cmaxu
  HepaRG <100x Avg Cmaxu HCS: +ve (<100x Avg Cmaxu)
[14]; HepaRG, all endpoints (ATP and HCS), cut-off <25x Avg Cmax
  HepaRG <25x Avg Cmax All: +ve
[14]; HepaRG, all endpoints, Cmax max used
  HepaRG Cmax max All: +ve
[14]; HepaRG, all endpoints, Cmax min used
  HepaRG Cmax min All: +ve
[14]; HepaRG, all endpoints, cut-off <10 uM
  HepaRG <10 uM All: +ve (<10 uM)
[14]; HepaRG, all endpoints, cut-off <100x Avg Cmaxu
  HepaRG <100x Avg Cmaxu All: +ve (<100x Avg Cmaxu)
[14]; HepaRG, read-out: ATP endpoint AC50
  AC50: 9.16 µM
[14]; HepaRG, read-out: ATP endpoint MEC
  minimal effective concentration: 1.28 µM
[14]; HepaRG, read-out: HCS endpoint AC50
  AC50: 115 µM
[14]; HepaRG, read-out: HCS endpoint MEC
  minimal effective concentration: 5.78 µM
[14]; [19]
  DILI prediction HepaRG spheroids (HCS-MEC): +VE (MEC < 25 × Cmax.tot cut-off)
[15]
  THLE-Null: -VE
  THLE-Null/3A4: -VE
[16]; In vitro Assay, ref Tolosa 2012
  Structural based (HCI): +VE
[16]; Structural based (HCI), HepG2, ref Tolosa et al. 2012
  DILI in vitro assay prediction, Tolosa (2012): +VE

## CO[C@H]1/C=C/O[C@@]2(C)Oc3c(C)c(O)c4c(O)c(cc(O)c4c3C2=O)NC(=O)/C(C)=C\C=C\[C@H](C)[C@H](O)[C@@H](C)[C@@H](O)[C@@H](C)[C@H](OC(C)=O)[C@@H]1C [rifamycin SV]
[5]; assignment in Dawson 2012, ref Dawson 2012
  In vivo DILI: +VE
[17]; cutoff<1& cmax u>.2
  Inhibition of rBsep cutoff<1& cmax u>.2: +VE
[17]; cutoff<3
  Inhibition of rBsep cutoff<3: +VE

Reference: article PMC7395068, “The evolution of strategies to minimise the risk of human drug-induced liver injury (DILI) in drug discovery and development” (Archives of Toxicology, 2020)
